# Reference: article PMC8854719, “Phase 1A/1B dose-escalation and -expansion study to evaluate the safety, pharmacokinetics, food effects and antitumor activity of pamiparib in advanced solid tumours” (British Journal of Cancer, 2021)
# Columns and labels:
# ovarian cancer = conditions: Phase 1 study in China (NCT03333915), high-grade ovarian cancer refractory or resistant to platinum; cited from earlier work
# [1] = tested on: BRCA1-mutant breast cancer xenograft model; set-up: method as in PMID 32652442; conditions: cited from earlier work
# [2] = Food-effects cohort: PK fasted vs high-fat meal; assay type: in vivo, human
# Protocol: Patients in the food-effects cohort received a single dose of pamiparib 60 mg (based on the RP2D) on day 1 of cycle 1, followed by a 5-day washout; patients then received another single dose of 60 mg on day 6. Seven patients in sequence 1 (fast followed by fed) received pamiparib after a ≥ 10-h fast on day 1 and after consuming a standard high-fat meal (described in the Supplemental Appendix) 30 min prior to drug administration on day 6. Six patients in sequence 2 (fed followed by fast) received pamiparib after a high-fat meal on day 1 and after a ≥ 10-h fast on Day 6. From day 8 of cycle 1 onward, patients received 60-mg BID treatment.
# (§1) Pamiparib in plasma was measured using a validated liquid chromatography-tandem–mass spectrometry assay with a lower limit of quantification of 1.0 ng/mL. The collection schedule for blood samples used to assess the PK profile is presented in the Supplemental Appendix. Summary PK parameters, including area under the concentration-time curve from time 0 to 9 h (AUC0-9) or infinity (AUC0-inf), maximal plasma concentration (Cmax) and time to maximal plasma concentration (Tmax), were estimated. The pharmacodynamic (PD) activity of pamiparib was explored through the evaluation of poly(ADP-ribose [PAR]) formation in peripheral blood mononuclear cells (PBMCs) after pamiparib administration. The schedule for blood sample collection (PK and PBMCs) and additional assessment information for PAR levels in PBMCs and pharmacodynamic activity is presented in the Supplemental Appendix. Antitumor activity was assessed by radiographic imaging (computed tomography or magnetic resonance imaging) during screening, within 28 days of first pamiparib dose, every 6 weeks in the first 12 months and every 9 weeks thereafter.
# An example of a recommended United States Food and Drug Administration (US FDA) standard high-fat meal comprises two eggs fried in butter, two strips of bacon, two slices of toast with butter, 4 ounces of hash brown potatoes, and 8 ounces of whole milk.
# The PK profile of pamiparib was assessed based on blood samples collected at predose and 0.5, 1, 2, 4, 6, 9, 24, and 48 hours postdose on Days 1-3 and then at predose and 0.5, 1, 2, 4, 6, and 9 hours postdose on Day 17 of Cycle 1 in Phase 1A. Sparse PK samples were collected in phase 1B Part A. The food effect on the PK of pamiparib was assessed based on blood samples collected at predose and 0.5, 1, 2, 4, 7, 24, and 48 hours postdose on Day 1 and Day 6 of Cycle 1 in phase 1B Part B.
# [3] = tested on: poly(ADP-ribose [PAR]) formation in peripheral blood mononuclear cells (PBMCs); assay: PAR inhibition in PBMCs (ELISA); assay type: in vivo; conditions: Homo sapiens, PBMC; sustained at doses of 10 mg BID or higher
# Protocol: as §1
# Time-matched blood samples (PK and PBMCs) were obtained on Day 1 (predose and 4 hours postdose) and Day 17 (4 hours postdose) of Cycle 1. The PAR levels in PBMCs were measured by a validated ELISA assay using a commercial PARP pharmacodynamic assay kit (Trevigen, Gaithersburg, MD). […]
# [4] = tested on: metastatic castration-resistant prostate cancer (mCRPC); assay: PCWG2 response and PSA progression; assay type: in vivo, human
# Protocol: Tumour response was evaluated by RECIST v1.1. For patients with ovarian cancer, tumour response was assessed per RECIST v1.1 and by Gynecologic Cancer Intergroup (GCIG) CA-125 criteria. Tumour response for patients with prostate cancer was assessed by Prostate Cancer Clinical Trials Working Group 2 (PCWG2) criteria. Objective response rate (ORR) was defined as the proportion of patients achieving a confirmed complete response (CR) or partial response (PR) on study treatment. Blood tumour antigens (e.g., carcinoembryonic antigen for colorectal cancer, CA-125 for ovarian cancer and prostate-specific antigen [PSA] for mCRPC) were assessed during screening, every 6 weeks after the first pamiparib dose in the first 12 months, and every 9 weeks thereafter.
# The safety population comprised all patients in the dose-escalation and dose-expansion phases who received at least one dose of pamiparib (Supplementary Table S2). Patients in the safety analysis set for whom valid pamiparib PK parameters were estimated and for whom evaluable PD results were available represented the PK population and the PD population, respectively. The efficacy-evaluable population included patients in the safety analysis set who had at least one evaluable postbaseline tumour assessment or those who discontinued due to clinical disease progression or early death before tumour assessment could be performed. The EOC efficacy-evaluable population was a subset of the overall efficacy-evaluable population that included patients with EOC from both the dose-escalation and dose-expansion phases. Patients in the dose-expansion phase without measurable disease at baseline per RECIST v1.1 were excluded from the efficacy-evaluable population.
# [5] = Phase 1 portion of NCT03333915, patients in China; cited from earlier work
# [6] = single 60 mg dose, high-fat breakfast vs fasted
smiles,measurement,setting,value
C[C@]12CCCN1CC1=NNC(=O)c3cc(F)cc4[nH]c2c1c34 [pamiparib],Clinical benefit rate,ovarian cancer,62.5%
same,ORR,ovarian cancer,25.0%
same,Efficacy (tumour regression) compared with olaparib,[1],16 fold
same,Food effects on pharmacokinetics (in words),[2]; 60 mg single dose,no food effects
same,Tmax,"[2]; human, plasma, oral, single 60 mg dose with a high-fat breakfast, read-out: Median Tmax",7 h
same,Reduction of AUC0-inf with food,[2]; [6],12%
same,Reduction of Cmax with food,[2]; [6],41%
same,inhibition at 10 mg,[3],~80%
same,Median time to PSA progression,[4]; PSA-evaluable population (n=6),4.2 months
same,PSA progression rate,[4]; PSA-evaluable population (n=6),33.3%
same,Responders per PCWG2 criteria (in words),"[4]; mCRPC, phase 1B Part A",No patients with mCRPC in phase 1B Part A were considered responders
same,"Anaemia, Grade ≥3",[5],27%
